Data on 4 molecules can be found in publication PMC8116058, “De novo macrocyclic peptides dissect energy coupling of a heterodimeric ABC transporter by multimode allosteric inhibition” (eLife, 2021).

Positions of bridges follow the written chain, without caps; N, C: chain ends. Non-standard residues stand in square brackets, D forms with d. Residues, ends and D or L forms follow the SMILES beside them. *: point of attachment. 5FAM = O=C1OC2(c3ccc(O)cc3Oc3cc(O)ccc32)c2ccc(C(=O)*)cc21; βAla = NCCC(=O)O

The experiment concerns TmrAB. Kind of experiment: Conformational epitope test, CP^F anisotropy with TmrAB and SDS. Type of experiment: binding, Thermus thermophilus. As for the experimental part:
In order to analyze the binding affinity and specificity of CPs to TmrAB, we established a fluorescence polarization assay. Fluorescein-labeled CP^Fs were incubated with increasing concentrations of TmrAB reconstituted in liposomes at a protein-to-lipid ratio of 1:20 (w/w). […] To address whether the CPs recognize a linear or non-linear epitope, we examined the binding of CP^Fs after disrupting the quaternary and tertiary structure of TmrAB complexes by adding anionic detergent SDS.
Figure 2. […] (A, B) Equilibrium binding analysis. Fluorescence anisotropy of CP^Fs (50 nM) was determined at λex/em = 485/520 nm with increasing concentrations of TmrAB which was reconstituted in liposomes. TmrAB concentrations were calculated based on the random (50/50%) orientation in proteoliposomes ([Stefan et al., 2020]). As a control, equal amounts of empty liposomes were added to CP^Fs (dashed lines, open symbols). The difference in fluorescence polarization was normalized to free (0%) and 100% bound CP^F. Mean values ± SD (n = 3) are shown, and data were analyzed by a one-site binding model. […] Streptavidin beads loaded with CP14^B (1 µM) were mixed with purified TmrAB (60 nM) for 1 hr at 4°C. Beads were washed and bound TmrAB was eluted by adding SDS loading buffer for 10 min at 95°C. Amounts of TmrA in input (I), flow-through (FT), wash fraction (W), and eluate (E) were analyzed by SDS-PAGE and immunoblotting (α-His). Beads without CP^B served as negative control (right panel). (D) One-step purification of TmrAB via immobilized CP14^B matrices. Streptavidin-agarose beads were loaded with CP14^B (1 µM) and mixed with DDM-solubilized membranes of E. coli containing TmrAB as described in (C). Bound TmrAB was eluted in SDS loading buffer and analyzed by SDS-PAGE (silver stain). (E) Native mass spectrometry. TmrAB (4 µM) was buffer exchanged to ESI buffer and incubated with a 2-fold molar excess of CP14^F for 10 min on ice. Protein complexes were investigated by ESI-TOF-mass spectrometry. […] Figure 2—source data 1. Source data for Figure 2. Figure 2—figure supplement 1. […] (A) CP^Bs-mediated isolation of solubilized TmrAB. Streptavidin matrices were loaded with CP^Bs (1 µM) and incubated with purified TmrAB (60 nM) for 1 hr at 4°C. Beads without CP^Bs served as control (see Figure 2C). Bound TmrAB complexes were eluted by the addition of SDS loading buffer for 10 min at 95°C. TmrAB in input (I), flow-through (FT), washing fraction (W), and eluate (E) was analyzed by SDS-PAGE and immunoblotting (α-His). (B) Isolation of TmrAB using CP13^B. Streptavidin matrices were loaded with CP13^B (1 µM) and mixed with DDM-solubilized membranes of E. coli expressing TmrAB as described in (A). Bound TmrAB complexes were eluted in SDS loading buffer and analyzed by SDS-PAGE (silver stain). (C) Formation of CP^F-TmrAB complexes. DDM-solubilized TmrAB (1 µM) was incubated with CP12^F, CP13^F, CP14^F (2 µM each), or CP6^F (5 µM) for 10 min on ice. CP^F-TmrAB complexes were analyzed by gel filtration. […] (D) Conformational epitopes. CP^Fs (50 nM) were incubated with TmrAB (0.6 µM for CP6^F and CP13^F, 0.7 µM for CP12^F, 0.5 µM for CP14^F) in the presence of 1% (v/v) SDS. Fluorescence anisotropy was determined at λex/em = 485/520 nm. […] Figure 2—figure supplement 1—source data 1. Source Data for Figure 2—figure supplement 1. [drawing 2] Figure 2—figure supplement 2. Analysis of CP^F-TmrAB complexes by native mass spectrometry.

The mark [1] stands for this setting: listed as CPF: CP^F 50 nM alone.
Setting [2] is: listed as SDS: CP^F 50 nM + TmrAB + 1% (v/v) SDS.
Setting [3] is: listed as TmrAB: CP^F 50 nM + TmrAB (0.6 µM CP6^F/CP13^F, 0.7 µM CP12^F, 0.5 µM CP14^F).

As for `CC[C@H](C)[C@@H]1NC(=O)[C@H]([C@@H](C)O)NC(=O)[C@H](CC(C)C)NC(=O)[C@H](Cc2c[nH]c3ccccc23)NC(=O)[C@H](Cc2ccccc2)NC(=O)[C@H](CC(N)=O)NC(=O)[C@H](CCC(=O)O)NC(=O)[C@H](CC(C)C)NC(=O)[C@H](CS)NC(=O)[C@H](Cc2c[nH]cn2)NC(=O)[C@H](CO)NC(=O)[C@@H](Cc2ccc(O)cc2)NC(=O)CSC[C@@H](C(=O)NCC(=O)N[C@@H](CO)C(=O)NCCC(=O)NCCC(=O)N[C@@H](CCCNC(=N)N)C(=O)N[C@@H](CCCCNC(=O)c2ccc3c(c2)C(=O)OC32c3ccc(O)cc3Oc3cc(O)ccc32)C(N)=O)NC(=O)[C@H](CC(C)C)NC1=O` [CP6] ({CH2CO}-[dY]SHCLENFWLTILCGS[βAla][βAla]RK(5FAM)-NH2; thioether N-14), the Fluorescence anisotropy reads like this: under setting [1], 0.0222; under setting [2], 0.0146; under setting [3], 0.1093.

Consider `CC(C)C[C@@H]1NC(=O)[C@H](Cc2ccccc2)NC(=O)CNC(=O)[C@H](CO)NC(=O)[C@H](Cc2ccccc2)NC(=O)[C@H](CC(=O)O)NC(=O)[C@@H]2CCCN2C(=O)[C@H]([C@@H](C)O)NC(=O)[C@@H](Cc2ccc(O)cc2)NC(=O)CSC[C@@H](C(=O)NCC(=O)N[C@@H](CO)C(=O)NCCC(=O)NCCC(=O)N[C@@H](CCCNC(=N)N)C(=O)N[C@@H](CCCCNC(=O)c2ccc3c(c2)C(=O)OC32c3ccc(O)cc3Oc3cc(O)ccc32)C(N)=O)NC(=O)[C@H](C)NC(=O)[C@H](CC(N)=O)NC(=O)[C@H](CCCNC(=N)N)NC(=O)[C@H](CC(C)C)NC(=O)[C@H](Cc2ccccc2)NC(=O)[C@H](C)NC1=O` [CP12] ({CH2CO}-[dY]TPDFSGFLAFLRNACGS[βAla][βAla]RK(5FAM)-NH2; thioether N-16), for which the Fluorescence anisotropy is, setting by setting: under setting [1], 0.0250; under setting [2], 0.0265; under setting [3], 0.1604.

Turning to `CC[C@H](C)[C@@H]1NC(=O)[C@H](Cc2c[nH]c3ccccc23)NC(=O)[C@H](CC(N)=O)NC(=O)[C@H](C)NC(=O)[C@H](CO)NC(=O)[C@@H]2CCCN2C(=O)[C@H](CC(=O)O)NC(=O)[C@@H](Cc2ccc(O)cc2)NC(=O)CSC[C@@H](C(=O)NCC(=O)N[C@@H](CO)C(=O)NCCC(=O)NCCC(=O)N[C@@H](CCCNC(=N)N)C(=O)N[C@@H](CCCCNC(=O)c2ccc3c(c2)C(=O)OC32c3ccc(O)cc3Oc3cc(O)ccc32)C(N)=O)NC(=O)[C@H]([C@@H](C)O)NC(=O)[C@H](CC(C)C)NC(=O)[C@H](CC(C)C)NC(=O)[C@H](C(C)C)NC(=O)[C@H](CC(C)C)NC1=O` [CP13] ({CH2CO}-[dY]DPSANWILVLLTCGS[βAla][βAla]RK(5FAM)-NH2; thioether N-14; C-terminus assumed), the Fluorescence anisotropy under setting [1] came out at 0.0252, the Fluorescence anisotropy under setting [2] was found to be 0.0310 and the Fluorescence anisotropy under setting [3] amounted to 0.1217.

Take `CC(C)[C@@H]1NC(=O)[C@H](Cc2ccccc2)NC(=O)[C@@H]2CCCN2C(=O)[C@H](CC(N)=O)NC(=O)[C@H](Cc2c[nH]c3ccccc23)NC(=O)[C@H](C(C)C)NC(=O)[C@H](Cc2ccc(O)cc2)NC(=O)[C@H](Cc2ccccc2)NC(=O)[C@@H](Cc2ccc(O)cc2)NC(=O)CSC[C@@H](C(=O)NCC(=O)N[C@@H](CO)C(=O)NCCC(=O)NCCC(=O)N[C@@H](CCCNC(=N)N)C(=O)N[C@@H](CCCCNC(=O)c2ccc3c(c2)C(=O)OC32c3ccc(O)cc3Oc3cc(O)ccc32)C(N)=O)NC(=O)[C@H](CCCCN)NC(=O)[C@H](Cc2ccccc2)NC1=O` [CP14] ({CH2CO}-[dY]FYVWNPFVFKCGS[βAla][βAla]RK(5FAM)-NH2; thioether N-12; C-terminus assumed): the Fluorescence anisotropy under setting [1] is reported as 0.0267, the Fluorescence anisotropy under setting [2] worked out at 0.0311 and the Fluorescence anisotropy under setting [3] was 0.1410.
